Experimental data: patent US9795602B2, “Polycyclic-carbamoylpyridone compounds and their pharmaceutical use” (Gilead Sciences, Inc., priority 2014, dated 2017)

Assays:
HIV-IIIb = assay: Antiviral assay in MT4 cells; type: cell-based; details: Human immunodeficiency virus 1, IIIB, MT4, 120 h, MT4 cells, HIV-IIIb, 5 days; read-out: EC50
Summary of the method: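 MT4 cells infected with HIV-IIIb (0.004 m.o.i.) or mock-infected, then plated at 2000 cells per well with compound. After 5 days at 37 °C, cell viability read by CellTiter-Glo chemiluminescence.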

OCT2 = OCT2 (Homo sapiens (Human), UniProt O15244); assay: OCT2 inhibition assay (14C-TEA uptake, OCT2-transfected MDCKII cells); type: cell-based
OCT2, sequence (O15244 whole entry): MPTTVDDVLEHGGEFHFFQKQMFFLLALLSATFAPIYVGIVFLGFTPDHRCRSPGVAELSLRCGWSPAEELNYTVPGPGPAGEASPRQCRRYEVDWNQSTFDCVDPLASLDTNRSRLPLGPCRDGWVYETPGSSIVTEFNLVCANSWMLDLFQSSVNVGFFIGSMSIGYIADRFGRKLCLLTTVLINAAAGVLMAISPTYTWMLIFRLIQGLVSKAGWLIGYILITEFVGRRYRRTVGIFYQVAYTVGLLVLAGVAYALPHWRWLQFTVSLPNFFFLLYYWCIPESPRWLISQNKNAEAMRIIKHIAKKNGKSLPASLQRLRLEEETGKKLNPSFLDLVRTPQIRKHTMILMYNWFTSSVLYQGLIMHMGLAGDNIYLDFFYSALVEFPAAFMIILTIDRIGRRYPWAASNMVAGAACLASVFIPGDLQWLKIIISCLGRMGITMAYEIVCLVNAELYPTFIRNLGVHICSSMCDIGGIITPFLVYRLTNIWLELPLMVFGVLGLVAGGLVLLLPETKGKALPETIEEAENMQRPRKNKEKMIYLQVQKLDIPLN
Description: MDCKII cells were maintained in minimal essential medium (MEM) with 1% Pen/Strep, 10% fetal bovine serum, and 0.25 mg/mL hygromycin B in an incubator set at 37° C., 90% humidity and 5% CO2. 24 hours prior to assay, media containing 5 mM sodium butyrate were added to MDCKII cells in flasks, and cells were grown to 80-90% confluence. On assay day, cells were trypsinized and resuspended in Krebs-Henseleit Buffer (KHB), pH 7.4 at […]. Cells were preincubated for 15 min in assay plate before addition of test compound or substrate.
Test compounds were serially diluted in DMSO and then spiked (2 μL) into in 0.4 mL KHB buffer containing wild-type or OCT2-transfected cells and incubated for 10 minutes. Assay was initiated with the addition of 0.1 mL of 100 μM ^14C-TEA in KHB buffer (20 μM final concentration after mixing). The concentration of TEA is based on the Km. After 10 minutes of incubation, the assay mixture was quenched with addition of 0.5 mL of ice-cold 1×PBS buffer. Samples were then centrifuged at 1000 rpm for 5 min and supernatants were removed. Wash steps were repeated four times with ice-cold PBS. Finally, the cell pellets were lysed with 0.2N NaOH and let sit at room temperature for at least 30 min to ensure complete lysis. Samples were then counted on liquid scintillation counter and dpm counts were used to perform the following calculations. The % inhibition was calculated as follows: % inhibition=[1−{[OCT2]i−[WT]ni}/{[OCT2]ni−[WT]ni}]*100 where, [OCT2]i represents the dpm count in the presence of test compound for either OCT2 cells, […] of test compound for OCT2 cells and [WT]ni represents the dpm count in the absence of test compound for wild type cells, respectively.

PXR (NR1I2) = PXR (NR1I2) (Homo sapiens (Human), UniProt O75469); assay: Human PXR activation assay (luciferase reporter, DPX2 cells); type: cell-based; details: human; 15 uM; DPX2 cells; % Emax relative to rifampicin, adjusted for DMSO background; read-out: PXR % inh at 15 uM (adjusted)
PXR (NR1I2), sequence (O75469 whole entry): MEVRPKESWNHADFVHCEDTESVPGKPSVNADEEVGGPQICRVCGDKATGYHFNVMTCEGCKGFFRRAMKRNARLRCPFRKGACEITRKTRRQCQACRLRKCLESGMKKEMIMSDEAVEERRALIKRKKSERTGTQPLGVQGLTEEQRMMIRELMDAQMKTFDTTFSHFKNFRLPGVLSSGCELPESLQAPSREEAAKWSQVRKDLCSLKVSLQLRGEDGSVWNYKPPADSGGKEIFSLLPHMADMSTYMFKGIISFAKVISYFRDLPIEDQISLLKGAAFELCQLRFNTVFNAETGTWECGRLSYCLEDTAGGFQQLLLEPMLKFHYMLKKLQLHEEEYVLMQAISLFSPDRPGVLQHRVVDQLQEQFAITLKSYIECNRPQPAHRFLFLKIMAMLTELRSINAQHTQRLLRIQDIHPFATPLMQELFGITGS
Description: Luciferase Reporter Gene Assay.
A stably transformed tumor cell line (DPX2) was plated on 96-well microtiter plates. […]. The number of viable cells was determined and the reporter gene activity was assessed. […]

[1] = Pharmacokinetics after intravenous infusion to male SD rats; type: in vivo; details: Sprague-Dawley, plasma, rat, IV infusion 0.5 mg/kg; for Vd: read-out: Vss
Description: (§1) Pharmacokinetic analysis was performed on compounds 25b and 39 following intravenous or oral administration to rats.
(§2) The test compounds were formulated in 5% Ethanol, 55% PEG 300, and 40% water at 0.1 mg/mL for IV infusion and for oral dosing.
(§3) Each dosing group consisted of 3 male, Sprague-Dawley rats. At dosing, the animals weighed an average of 0.25 kg. The animals were fasted overnight prior to dose administration and up to 4 hr after dosing.
(§4) For the IV infusion group, the test article was administered by intravenous infusion over 30 min. The rate of infusion was adjusted according to the body weight of each animal to deliver a dose of 0.5 mg/kg. For the oral dosing group, the test article was administered by oral gavage at 5 mL/kg for a dose of 0.5 mg/kg.
For pharmacokinetic analysis of intravenously administered compounds, serial venous blood samples (approximately 0.3 mL each) were taken from each animal at 0, 0.250, 0.483, 0.583, 0.750, 1.50, 3.00, 6.00, 8.00, 12.0, 24.0, 48 and 72 hours after dosing. The blood samples were collected into Vacutainer™ tubes containing EDTA-K2 as the anti-coagulant and were immediately placed on wet ice pending centrifugation for plasma. An LC/MS/MS method was used to measure the concentration of the test compound in plasma. An aliquot of 50 μL of each plasma sample was added to a clean 96 well plate, and 200 μL of cold acetonitrile/internal standard solution (ACN)/(ISTD) was added. After protein precipitation, an aliquot of 110 μL of the supernatant was transferred to a clean 96-well plate and diluted with 300 μL of water. An aliquot of 10 μL of the above solution was injected into a ABSciex API-4000 triple quadrupole LC/MS/MS system utilizing a HyPurity C18 HPLC column (30×2.1 mm, 3μ), from Thermo-Hypersil (Part #22103-032130). An Agilent 1200 series binary pump (P/N G1312A Bin Pump) was used for elution and separation, and an HTS Pal autosampler (LEAP Technologies, Carrboro, N.C.) was used for sample injection. A API-4000 triple quadrupole mass spectrometer was utilized in multiple reaction monitoring mode (Applied Biosystems, Foster City, Calif.). Liquid chromatography was performed using two mobile phases: mobile phase A contained 0.1% formic acid and 1% isopropylamine in aqueous solution, and mobile phase B contained […]. Non-compartmental pharmacokinetic analysis was performed on the plasma concentration-time data. The resulting data are shown in the first three columns of Table 2. In Table 2, Cl refers to clearance, which characterizes the rate at which drug is removed from plasma. The lower the clearance of a drug is, the longer the elimination half-life is in the body. Vss refers to the steady state volume of distribution and indicates how well a drug is distributed into the tissues. The larger the Vss is, the longer the elimination half-life is in the body. MRT refers to mean residence time, which is a measure of the average time molecules exist in the body.

[2] = Pharmacokinetics after oral administration to male SD rats; type: in vivo; details: Sprague-Dawley, plasma, rat, oral gavage 0.5 mg/kg, solution, read-out: % F (solution)
Description: as §1, §2, §3, §4
For pharmacokinetic analysis of orally administered compounds, serial venous blood samples (approximately 0.3 mL each) were taken from each animal at time points of 0, 0.25, 0.50, 1.0, 2.0, 4.0, 6.0, 8.0, 12.0 24.0, 48.0 and 72 hours after dosing. Blood samples were collected, prepared and analyzed in a similar way to the intravenous studies described above. Non-compartmental pharmacokinetic analysis was performed on the plasma concentration-time data. In Table 2, F (%) refers to oral bioavailability.

| Structure (SMILES) | EC50 (HIV-IIIb) [µM] | IC50 (OCT2) [µM] | inhibition at 24 h, 15 µM (PXR (NR1I2)) [%] | MRT [1] [h] | clearance [1] [mL/h/kg] | Vd [1] [L/kg] | bioavailability [2] [%] |
| --- | --- | --- | --- | --- | --- | --- | --- |
| CCN1C(=O)c2c(O)c(=O)c(C(=O)NCc3ccc(F)c(Cl)c3F)cn2[C@H]2CCOC[C@H]21 [Compound 39] | 0.00258 | 10 | 5 | 105 | 2.3 | 0.212 | 15 |
| CCN1C(=O)c2c(O)c(=O)c(C(=O)NCc3ccc(F)c(Cl)c3F)cn2[C@H]2CCO[C@H]21 [Compound 25b] | 0.00437 | 10 | 13 | 119 | 1.3 | 0.141 | 39 |
